Experimental data taken from patent US20110008461A1 (priority 2008, published 2011).
Values joined by “and” are separate entries in the source; they are usually repeats but may differ in a detail not shown here. Identical values can stand only once. Like-named read-outs stand apart in the source and are kept apart here. Marks after values point to notes of the source that are not given here. Blank lines part the entries; values can stand above or below the molecule they belong to.

Tests used:
[1] = target: T1, Rat Liver Cytosolic Phosphoenolpyruvate Carboxykinase (Rattus norvegicus, UniProt P07379); assay: Continuous spectrophotometric PEPCK inhibition assay coupled to malate dehydrogenase (preliminary screen, inhibition patterns, Dixon plots); settings: for Inhibition of PEPCK (in words): against PEP;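 as to all read-outs here: PEPCK activity followed continuously via malate dehydrogenase coupling, where OAA reduction consumes NADH, seen as falling absorbance at 340 nm, run at 35 °C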
T1 sequence (P07379 1-622): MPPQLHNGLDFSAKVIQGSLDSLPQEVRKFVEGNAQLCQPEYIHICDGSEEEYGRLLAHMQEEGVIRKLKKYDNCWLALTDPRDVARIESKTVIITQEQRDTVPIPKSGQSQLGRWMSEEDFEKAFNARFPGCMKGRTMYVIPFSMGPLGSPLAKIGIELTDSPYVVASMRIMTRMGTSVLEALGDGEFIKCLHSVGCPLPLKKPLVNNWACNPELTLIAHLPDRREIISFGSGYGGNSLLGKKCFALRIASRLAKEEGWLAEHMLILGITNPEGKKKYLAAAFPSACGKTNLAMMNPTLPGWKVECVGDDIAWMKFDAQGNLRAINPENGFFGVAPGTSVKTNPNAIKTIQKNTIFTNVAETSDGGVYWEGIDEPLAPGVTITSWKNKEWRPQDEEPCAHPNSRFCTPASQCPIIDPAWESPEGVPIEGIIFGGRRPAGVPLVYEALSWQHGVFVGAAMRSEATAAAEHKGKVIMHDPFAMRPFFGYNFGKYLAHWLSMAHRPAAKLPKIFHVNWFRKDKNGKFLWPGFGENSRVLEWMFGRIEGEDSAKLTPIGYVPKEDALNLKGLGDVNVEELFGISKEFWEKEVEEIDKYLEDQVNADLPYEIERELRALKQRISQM
Description: TES (pH 7.2), 7.5% glycerol (v:v), 0.2 mM EDTA.
The inhibition of PEPCK by various compounds was evaluated using a continuous spectrophotometric assay in which the coupling enzyme, malate dehydrogenase, reduced OAA to malate concomitant with the oxidation of NADH to NAD^+. The decrease in absorbance at 340 nm was monitored using a Beckman DU-70 Spectrophotometer equipped with a temperature controller. The standard 1-mL reaction mixture for the production of OAA contained 56 mM HEPES-KOH buffer (pH 7.0), 1 mM IDP (or alternatively, 0.1 mM GDP), 23 U malate dehydrogenase (1 unit of malate dehydrogenase is defined as 1 mole malate produced/min/mg protein), 0.25 mM NADH, 2.3 mM MnCl2, and 48 mM NaHCO3. […] All assay components except PEPCK were preincubated in the cuvette for 3 min at 35° C., the standard assay temperature.
The kinetic parameters for the inhibition studies were best fit to the equations for competitive inhibition (Eq. 1) and noncompetitive inhibition (Eq. 2), using the computer program and nomenclature of Cleland (Cleland, W. W. (1979) Statistical analysis of enzyme kinetic data. Methods Enzymol 63, 103-138).
v=VA/[K(1+1/Kis)+A] (Eq. 1)
v=VA/[K(1/Kis)+A(1+1/Kii)] (Eq. 2)
The parameters are defined as follows: v is the initial velocity, V is the maximal rate of product formation in the absence of inhibitor, A is the concentration of the variable substrate, K is the apparent Michaelis constant for the varied substrate, and Kis and Kii are the inhibition constants.

[2] = target: pyrophosphate-dependent phosphofructokinase; settings: reported; cited from earlier work
[3] = target: T2, cytosolic PEPCK (Rattus norvegicus, UniProt P07379); assay: Kinetic data for MPA binding to the allosteric site of PEPCK; format: biochemical
T2 sequence (P07379 1-622): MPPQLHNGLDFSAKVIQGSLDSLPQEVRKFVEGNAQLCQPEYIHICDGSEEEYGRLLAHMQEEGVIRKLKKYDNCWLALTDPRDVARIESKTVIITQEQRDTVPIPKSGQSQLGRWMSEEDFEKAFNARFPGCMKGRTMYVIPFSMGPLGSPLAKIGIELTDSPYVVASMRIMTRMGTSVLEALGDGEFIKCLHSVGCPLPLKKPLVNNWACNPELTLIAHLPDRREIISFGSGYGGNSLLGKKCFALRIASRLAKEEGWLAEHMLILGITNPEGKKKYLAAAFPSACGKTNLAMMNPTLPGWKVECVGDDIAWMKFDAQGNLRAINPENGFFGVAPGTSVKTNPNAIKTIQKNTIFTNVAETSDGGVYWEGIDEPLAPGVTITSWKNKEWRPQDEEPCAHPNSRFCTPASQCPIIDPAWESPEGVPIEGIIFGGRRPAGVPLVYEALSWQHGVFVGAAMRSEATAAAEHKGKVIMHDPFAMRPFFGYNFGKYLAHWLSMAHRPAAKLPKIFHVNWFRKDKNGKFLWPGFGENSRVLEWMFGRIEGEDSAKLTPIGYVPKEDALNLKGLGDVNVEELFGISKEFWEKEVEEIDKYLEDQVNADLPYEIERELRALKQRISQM

[4] = target: T3, avian liver mPEPCK (Gallus gallus, UniProt P21642); settings: with respect to OAA; cited from earlier work
T3 sequence (P21642 34-641): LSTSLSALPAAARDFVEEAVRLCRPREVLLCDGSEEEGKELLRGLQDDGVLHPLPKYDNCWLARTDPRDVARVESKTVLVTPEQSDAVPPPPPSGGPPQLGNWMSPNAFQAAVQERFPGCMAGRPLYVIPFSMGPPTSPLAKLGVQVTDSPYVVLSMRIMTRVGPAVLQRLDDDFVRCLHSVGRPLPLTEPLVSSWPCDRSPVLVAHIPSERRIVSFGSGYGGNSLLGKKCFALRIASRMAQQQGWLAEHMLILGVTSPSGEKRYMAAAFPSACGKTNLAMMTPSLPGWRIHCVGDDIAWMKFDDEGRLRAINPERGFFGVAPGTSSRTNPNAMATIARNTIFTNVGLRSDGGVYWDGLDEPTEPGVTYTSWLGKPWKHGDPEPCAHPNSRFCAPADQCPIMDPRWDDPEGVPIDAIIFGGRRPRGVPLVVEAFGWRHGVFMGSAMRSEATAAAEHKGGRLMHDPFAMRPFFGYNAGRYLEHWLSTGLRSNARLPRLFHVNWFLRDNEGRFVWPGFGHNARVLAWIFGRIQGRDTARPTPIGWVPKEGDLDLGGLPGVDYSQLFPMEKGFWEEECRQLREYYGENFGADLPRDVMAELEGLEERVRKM

[5] = substrate: C=C(OP(=O)(O)O)C(=O)O; assay: cells, lysate or membranes named; settings: other: substrate, determined under the same assay conditions
[6] = analogue 1.5 mM, PEP 40 μM, preliminary screen, average of two PEPCK preparations
[7] = analogue 3 mM, PEP 40 μM, preliminary screen, average of two PEPCK preparations
[8] = PEP varied substrate, Cleland kinetics program, 35° C., pH 7.0
[9] = read-out: Ki, intercept effect (Kii), noncompetitive, PEP varied substrate
[10] = read-out: Ki, slope effect (Kis), noncompetitive, PEP varied substrate, Cleland kinetics program
[11] = analogue 6 mM, PEP 40 μM, preliminary screen, average of two PEPCK preparations

Molecule: NC(CCCP(=O)(O)O)C(=O)O (centres unmarked) [Compound 20, 2-Amino-5-phosphonovalerate]
- % Activity Remaining [1]: 98^f %

- % Activity Remaining [1, 6]: 108^f %
Molecule: N[C@@H](COP(=O)(O)O)C(=O)O [Compound 21, Serine phosphate]

Molecule: CC(C)(C(=O)O)S(=O)(=O)O [Compound 24, 2,2-Dimethylsulfoacetate]
- Ki relative to sulfoacetate [1]: 25 fold
- Pattern of Inhibition [1]: Competitive
- % Activity Remaining [1, 7]: 65^c %
- Ki ([1]; pH 7): 2100 ± 200 µM

Molecule: O=C(O)CCS(=O)(=O)O [Compound 25, 3-Sulfopropionate]
- Pattern of Inhibition ([1]; PEP varied substrate): Competitive
- Ki [1, 8]: 3400 ± 300 µM
- Inhibition of PEPCK (in words) [1]: poor inhibitor
- % Activity Remaining [1, 7]: 69^c %

- Inhibition of PEPCK (in words) [1]: even less inhibitory
- % Activity Remaining [1, 7]: 76^c %
Molecule: N[C@@H](CS(=O)(=O)O)C(=O)O [Compound 26, Cysteic acid]

- Inhibition of PEPCK (in words) [1]: does not cause inhibition
- % Activity Remaining [1, 7]: 105^c %
Molecule: N[C@@H](CS(=O)O)C(=O)O [Compound 27, Cysteine sulfinic acid]

Molecule: O=P(O)(O)OP(=O)(O)O [Compound 28, Pyrophosphate]
- % Activity Remaining [1]: 22^f %
- Ki [1]: 172 µM
- Ki ([1]; read-out: Ki, intercept effect (Kii)): 63 µM and 64 µM
- Ki ([1]; read-out: Ki, slope effect (Kis)): 34 µM

- Pattern of Inhibition ([1]; PEP varied substrate): noncompetitive
- Pattern of Inhibition ([1]; PEP varied substrate, listed as Methanediphosphonate (29)): Noncompetitive
- % Activity Remaining [1, 6]: 4^f %
- Ki [1, 9]: 90 ± 5 µM
- Ki [1, 10]: 32 ± 2 µM
Molecule: O=P(O)(O)CP(=O)(O)O [Compound 29, Methanediphosphonate]
- IC50 [2]: > 2000 µM

Molecule: O=P(O)(O)CCP(=O)(O)O [Compound 30, 1,2-Ethanediphosphonate]
- Pattern of Inhibition ([1]; PEP varied substrate): competitive
- Ki [1, 8]: 5100 µM
- Pattern of Inhibition ([1]; PEP varied substrate, listed as 1,2-Ethanediphosphonate (30)): Competitive
- % Activity Remaining [1, 11]: 96^e %

- Pattern of Inhibition ([1]; PEP varied substrate): noncompetitive
- Pattern of Inhibition ([1]; PEP varied substrate, listed as Methanedisulfonate (31)): Noncompetitive
- % Activity Remaining [1, 6]: 4^f %
- Ki [1, 9]: 168 ± 25 µM
- Ki [1, 10]: 27 ± 3 µM
Molecule: O=S(=O)(O)CS(=O)(=O)O [Compound 31, Methanedisulfonate]

Molecule: O=S(=O)(O)CCS(=O)(=O)O [Compound 32, 1,2-Ethanedisulfonate]
- % Activity Remaining [1, 11]: 42^e %
- Ki ([1]; from Dixon plots using two PEP concentrations): ~3000 µM
- Ki ([1]; from Dixon plots using two PEP concentrations, listed as 1,2-Ethanedisulfonate (32)): 3000 µM

- % Activity Remaining [1, 7]: 108^c %
Molecule: C[C@@H]1O[C@@H]1P(=O)(O)O [Compound 33, Phosphomycin]

Molecule: O=[N+]([O-])c1ccc(OP(=O)(O)O)cc1 [Compound 35, p-Nitrophenylphosphate]
- % Activity Remaining [1, 7]: 103^c %

- Ki ([3]; read-out: apparent affinity): ~100 µM
- Pattern of Inhibition ([3]; versus nucleotide): competitive with nucleotide binding
Molecule: O=C(O)c1ncccc1S [MPA, 3-mercaptopicolinic acid]

Molecule: O=C(O)C(=O)CS(=O)(=O)O [β-sulfopyruvate]
- Pattern of Inhibition [4]: competitive

Molecule: Phenylphosphate [Compound 34]
- % Activity Remaining [1, 7]: 96^c %

Molecule: Threonine phosphate [Compound 22]
- % Activity Remaining [1, 7]: 97^c %

B1: Rat Liver Cytosolic Phosphoenolpyruvate Carboxykinase (Rattus norvegicus) (protein)
chain: MPPQLHNGLDFSAKVIQGSLDSLPQEVRKFVEGNAQLCQPEYIHICDGSEEEYGRLLAHMQEEGVIRKLKKYDNCWLALTDPRDVARIESKTVIITQEQRDTVPIPKSGQSQLGRWMSEEDFEKAFNARFPGCMKGRTMYVIPFSMGPLGSPLAKIGIELTDSPYVVASMRIMTRMGTSVLEALGDGEFIKCLHSVGCPLPLKKPLVNNWACNPELTLIAHLPDRREIISFGSGYGGNSLLGKKCFALRIASRLAKEEGWLAEHMLILGITNPEGKKKYLAAAFPSACGKTNLAMMNPTLPGWKVECVGDDIAWMKFDAQGNLRAINPENGFFGVAPGTSVKTNPNAIKTIQKNTIFTNVAETSDGGVYWEGIDEPLAPGVTITSWKNKEWRPQDEEPCAHPNSRFCTPASQCPIIDPAWESPEGVPIEGIIFGGRRPAGVPLVYEALSWQHGVFVGAAMRSEATAAAEHKGKVIMHDPFAMRPFFGYNFGKYLAHWLSMAHRPAAKLPKIFHVNWFRKDKNGKFLWPGFGENSRVLEWMFGRIEGEDSAKLTPIGYVPKEDALNLKGLGDVNVEELFGISKEFWEKEVEEIDKYLEDQVNADLPYEIERELRALKQRISQM
- Km [5]: 82 µM and 89 µM
